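Grown in 96-well plates, cells were treated for 48 hours with each compound at five concentrations. Insufficient inhibition: endpoint recorded as highest concentration tested. At the GI50, growth is halved. TGI denotes the concentration required for complete inhibition of growth.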

Some test systems named below: SN12C renal; MOLT-4 leukemia; SF-268 CNS; HT29 colon; MALME-3M melanoma; OVCAR-3 ovarian; MCF7 breast; RPMI-8226 leukemia; HOP-62 NSCLC; SR leukemia.
Holding throughout (assay): NCI anticancer screen, dose series, 48 h

`O=C1OC(=O)c2c1cc1cc3c(cc1c2-c1ccc2c(c1)OCO2)OCO3`: the TGI in the experiment on SN12C renal, with MOLT-4 leukemia, in the experiment with SF-268 CNS, in the experiment with HT29 colon, with MALME-3M melanoma and in the experiment on OVCAR-3 ovarian was above 100 µM each time. Further, the TGI in the experiment on MCF7 breast and with RPMI-8226 leukemia was above 100 µM each time.

With `COc1cc(/C=C2\CC3C4CC=C5C[C@@H](N6CCCC6)CC[C@]5(C)C4CC[C@]3(C)[C@H]2OC(C)=O)ccc1OCCCn1ccnc1` (some centres not stated), the GI50 was 0.435 µM in the experiment with HOP-62 NSCLC; 1.24 µM in the experiment on SN12C renal; 0.206 µM with MOLT-4 leukemia; 3.87 µM in the experiment with SF-268 CNS; 0.162 µM in the experiment on HT29 colon; 0.275 µM in the experiment on OVCAR-3 ovarian. Besides, the GI50 in the experiment with MCF7 breast is 1.14 µM; in the experiment with RPMI-8226 leukemia, 0.343 µM. Further, the TGI in the experiment with HOP-62 NSCLC was 1.08 µM; with SN12C renal, 9.77 µM; in the experiment with MOLT-4 leukemia, above 15.4 µM; with SF-268 CNS, above 29.2 µM; in the experiment with HT29 colon it was above 50 µM; in the experiment on OVCAR-3 ovarian, 0.777 µM. In addition, the TGI with MCF7 breast was above 21.8 µM; in the experiment with RPMI-8226 leukemia, above 14 µM.

As to `O=C(/C=C/c1cccc(Cl)c1)c1ccccc1`, the GI50 is 15.7 µM with HOP-62 NSCLC; 14.6 µM in the experiment with SN12C renal; 4.07 µM in the experiment with MOLT-4 leukemia; 11.5 µM in the experiment on SF-268 CNS; 14.4 µM with MALME-3M melanoma; 2.6 µM with SR leukemia. The GI50 in the experiment on OVCAR-3 ovarian is 4.09 µM; in the experiment on MCF7 breast, 1.68 µM; in the experiment on RPMI-8226 leukemia it was 3.09 µM. The TGI in the experiment with HOP-62 NSCLC amounted to 29.9 µM; in the experiment with SN12C renal, 28.3 µM; in the experiment on MOLT-4 leukemia it was 36.4 µM; in the experiment on SF-268 CNS it was 26.2 µM; in the experiment on MALME-3M melanoma, 33.7 µM; with SR leukemia, 31.5 µM. The TGI worked out at 15.4 µM in the experiment on OVCAR-3 ovarian, 10.3 µM in the experiment on MCF7 breast and 9.04 µM with RPMI-8226 leukemia.

For the compound `CC(C)(C)c1ccc(OCCCCCCCN2CCNCC2)cc1`, the GI50 was 1.3 µM in the experiment on HOP-62 NSCLC; 2.73 µM in the experiment on SN12C renal; 1.7 µM with MOLT-4 leukemia; 2.36 µM with SF-268 CNS; 1.6 µM in the experiment with MALME-3M melanoma; 1.63 µM in the experiment on OVCAR-3 ovarian. Moreover, the results for the GI50 in the experiment with MCF7 breast and with RPMI-8226 leukemia were 1.62 µM and 1.83 µM, respectively. In addition, the TGI with HOP-62 NSCLC was 2.92 µM; in the experiment on SN12C renal it was 7.62 µM; with MOLT-4 leukemia, 3.71 µM; in the experiment on SF-268 CNS, 6.65 µM; with MALME-3M melanoma, 3.17 µM; with OVCAR-3 ovarian it was 3.12 µM. For the same compound, the results for the TGI with MCF7 breast and with RPMI-8226 leukemia were 3.26 µM and 4.25 µM, respectively.

In the case of `O=C(Nc1cccc2[nH]c(C(F)(F)F)nc12)c1ccc(Br)cc1F`, the GI50 was 2.43 µM in the experiment on HOP-62 NSCLC; 3.1 µM in the experiment with SN12C renal; 3.83 µM in the experiment with MOLT-4 leukemia; 4.17 µM in the experiment with SF-268 CNS; 2.86 µM in the experiment on MALME-3M melanoma; 3.51 µM with SR leukemia. Moreover, the figures for the GI50 in the experiment on OVCAR-3 ovarian, with MCF7 breast and in the experiment on RPMI-8226 leukemia were 3.62 µM, 2.5 µM and 2.44 µM, respectively. Also, the TGI in the experiment with HOP-62 NSCLC is 8.88 µM; in the experiment with SN12C renal, 10.8 µM; in the experiment on MOLT-4 leukemia it was 23.3 µM; in the experiment on SF-268 CNS, 21.4 µM; with MALME-3M melanoma it was 6.82 µM; in the experiment with SR leukemia, 16.1 µM. The results for the TGI with OVCAR-3 ovarian, in the experiment with MCF7 breast and in the experiment on RPMI-8226 leukemia were 16.8 µM, 15 µM and 7.9 µM, respectively.

`CCOC(=O)CCC(NC(=O)c1ccc(Oc2nc3cc(N)cc(N)c3nc2-c2ccccc2)cc1)C(=O)OCC` (configuration not stated): the GI50 in the experiment with HOP-62 NSCLC was 36.6 µM; with MOLT-4 leukemia, 39 µM; in the experiment on SF-268 CNS, 40.7 µM; with MALME-3M melanoma, 18.5 µM; in the experiment on OVCAR-3 ovarian, 16.2 µM; in the experiment on MCF7 breast it was 53.6 µM. Moreover, the GI50 with RPMI-8226 leukemia was above 100 µM. Besides, the TGI was 87.1 µM with HOP-62 NSCLC; above 100 µM in the experiment on MOLT-4 leukemia; above 100 µM in the experiment with SF-268 CNS; 35.2 µM in the experiment with MALME-3M melanoma; 41.2 µM in the experiment with OVCAR-3 ovarian; above 100 µM in the experiment with MCF7 breast. The compound also displayed a TGI in the experiment with RPMI-8226 leukemia above 100 µM.

For the compound `O=C1CC[C@@H]2[C@H]3CCC(=O)c4c3c(c3cccc(O)c3c4O)O[C@@]23C(=O)c2cccc(O)c2C(O)=C13`, the GI50 in the experiment with HOP-62 NSCLC is above 100 µM; in the experiment with SN12C renal, 61.4 µM; with MOLT-4 leukemia it was above 100 µM; in the experiment with SF-268 CNS, above 100 µM; in the experiment on HT29 colon it was above 100 µM; in the experiment with SR leukemia it was above 100 µM. Moreover, the GI50 with MCF7 breast and with RPMI-8226 leukemia was above 100 µM throughout. In addition, the TGI with HOP-62 NSCLC, in the experiment with SN12C renal, in the experiment on MOLT-4 leukemia, in the experiment on SF-268 CNS, in the experiment on HT29 colon and with SR leukemia was above 100 µM each time. For the same compound, the TGI in the experiment with MCF7 breast and in the experiment on RPMI-8226 leukemia was above 100 µM throughout.

`NC(=O)c1c(NC(=O)c2ccc(C(F)(F)F)cc2Cl)sc2c1CCC(=O)C2`: the GI50 is 1.25 µM in the experiment on HOP-62 NSCLC; 0.36 µM in the experiment on SN12C renal; 0.361 µM with MOLT-4 leukemia; 0.456 µM in the experiment with SF-268 CNS; 0.346 µM in the experiment with HT29 colon; 0.292 µM in the experiment with MALME-3M melanoma. For the same compound, the GI50 in the experiment on SR leukemia is 0.305 µM; in the experiment on OVCAR-3 ovarian it was 0.369 µM; in the experiment with MCF7 breast, 0.279 µM. Moreover, the TGI with HOP-62 NSCLC was above 44.5 µM; in the experiment on SN12C renal, 2.04 µM; in the experiment with MOLT-4 leukemia, above 100 µM; in the experiment on SF-268 CNS, 15.7 µM; in the experiment with HT29 colon it was 1.67 µM; in the experiment on MALME-3M melanoma it was 1.39 µM. Moreover, the TGI in the experiment on SR leukemia is above 100 µM; in the experiment on OVCAR-3 ovarian, 1.33 µM; with MCF7 breast, 4.08 µM.

`O=C1/C(=C/c2ccc([N+](=O)[O-])s2)Oc2ccc(Br)cc21`: the GI50 with HOP-62 NSCLC is 1 µM; with SN12C renal, 0.567 µM; in the experiment on MOLT-4 leukemia, 0.461 µM; in the experiment on SF-268 CNS, 0.256 µM; with MALME-3M melanoma, 0.347 µM; in the experiment with SR leukemia, 0.152 µM. In addition, the GI50 was 0.207 µM in the experiment with OVCAR-3 ovarian, 0.309 µM with MCF7 breast and 0.278 µM in the experiment with RPMI-8226 leukemia. Moreover, the TGI in the experiment on HOP-62 NSCLC was 4.3 µM; in the experiment on SN12C renal it was 2.93 µM; with MOLT-4 leukemia it was 3.82 µM; with SF-268 CNS, 0.684 µM; with MALME-3M melanoma, 1.6 µM; in the experiment on SR leukemia it was 0.914 µM. Also, the figures for the TGI with OVCAR-3 ovarian, in the experiment on MCF7 breast and in the experiment on RPMI-8226 leukemia were 0.409 µM, 1.87 µM and 1.14 µM, respectively.

The record behind these values is PubChem BioAssay (NCI).
